Results taken from ChEMBL document CHEMBL5584231, “Rational design of a new short anticancer peptide with good potential for cancer treatment” (Eur J Med Chem, 2024).
Active and inactive are the calls of the source. The rule behind the calls is not given here.

How the values were obtained:
[1] = Acute toxicity in female Balb/c mouse assessed as shrinking cytoplasm in kidney at approximately LD50 administered as single ip dose by H and E staining based analysis; assay type: organism-based; settings: in vivo
MCF7 [2] = experiment: Anti-invasion activity in human MCF7 cells assessed as reduction in number of passing cells on polycarbonate membrane at 1 times IC50 measured after 24 hrs by crystal violet staining based transwell assay; assay type: functional, cell-based
[3] = Toxicity in female Balb/c mouse implanted with mouse 4T1 cells assessed as pathological changes in spleen at 12 micromol/kg, ip administered every other day for 2 weeks by H and E staining based analysis; assay type: organism-based; settings: in vivo, 336 h, dose 12 µmol/kg
[4] = Acute toxicity in female Balb/c mouse assessed as reduction in survival rate at 30 mg/kg, ip administered as single dose and measured for 7 days; assay type: organism-based; settings: in vivo, 168 h, time 7 day
MCF7 [5] = experiment: Induction of apoptosis in human MCF7 cells assessed as dead cells at 1 times IC50 measured after 24 hrs by Annexin V-FITC staining based flow cytometry analysis (reference value: 6.41%); assay type: functional
MCF7 [6] = experiment: Induction of apoptosis in human MCF7 cells assessed as live cells at 1 times IC50 measured after 24 hrs by Annexin V-FITC staining based flow cytometry analysis (reference value: 92%); assay type: functional
Cell membrane [7] = experiment: Induction of cell membrane damage in human MCF7 cells assessed as protein leakage at 1 to 2 times IC50 measured after 0.5 to 6 hrs by UV based analysis; assay type: cell membranes; settings: time 0.5-6 hrs
MCF7 [8] = experiment: Effect on cell cycle progression in human MCF7 cells at 1 times IC50 measured after 1 hr by PI/RNase staining based flow cytometry analysis; assay type: functional
[9] = Toxicity in female Balb/c mouse implanted with mouse 4T1 cells assessed as pathological changes in kidney at 12 micromol/kg, ip administered every other day for 2 weeks by H and E staining based analysis; assay type: organism-based; settings: in vivo, 336 h, dose 12 µmol/kg
[10] = Acute toxicity in ip dosed female Balb/c mouse administered as single dose and measured for 7 days by karber method; assay type: organism-based; settings: in vivo, time 7 day
Cell membrane [11] = experiment: Induction of cell membrane damage in human MCF7 cells assessed as nucleic acid leakage at 1 to 2 times IC50 measured after 0.5 to 6 hrs by UV based analysis; assay type: cell membranes; settings: time 0.5-6 hrs
[12] = Toxicity in female Balb/c mouse implanted with mouse 4T1 cells assessed as pathological changes in lung at 12 micromol/kg, ip administered every other day for 2 weeks by H and E staining based analysis; assay type: organism-based; settings: in vivo, 336 h, dose 12 µmol/kg
MCF7 [13] = experiment: Cytotoxicity against human MCF7 cells assessed as cell viability at 2 times IC50 measured within 8 hrs by MTT assay; assay type: functional, cell-based
MCF7 [14] = experiment: Antimigratory activity in human MCF7 cells assessed as reduction in cell migration at 1 times IC50 measured after 24 hrs by scratch-wound healing assay; assay type: functional, cell-based
Cell membrane [15] = experiment: Induction of morphological changes in cell membrane of human MCF7 cells assessed as effect on normal cell shape with intact membrane surface at 1 to 2 times IC50 incubated for 1 hr by SEM analysis; assay type: cell membranes
MCF7 [16] = experiment: Induction of apoptosis in human MCF7 cells assessed as increase in intracellular ROS generation at 1 times IC50 measured after 0 to 360 mins by DCFH-DA staining based analysis; assay type: functional, cell-based; settings: time 0-360 min
[17] = Toxicity in female Balb/c mouse implanted with mouse 4T1 cells assessed as pathological changes in heart at 12 micromol/kg, ip administered every other day for 2 weeks by H and E staining based analysis; assay type: organism-based; settings: in vivo, 336 h, dose 12 µmol/kg
4T1 [18] = experiment: Antitumor activity against mouse 4T1 cells implanted in female Balb/c mouse assessed as reduction in tumor weight at 12 micromol/kg, ip administered every other day for 2 weeks and measured every 2 days relative to control; assay type: functional; parameters: scale not given: the % may be the effect or the level left; settings: dose 12 µmol/kg
[19] = Acute toxicity in female Balb/c mouse assessed as reduction in survival rate at 38 to 60 mg/kg, ip administered as single dose and measured for 7 days; assay type: organism-based; settings: in vivo, 168 h, dose 38-60 mg/kg, time 7 day
4T1 [20] = experiment: Antitumor activity against mouse 4T1 cells implanted in female Balb/c mouse assessed as reduction in tumor growth at 12 micromol/kg, ip administered every other day for 2 weeks and measured every 2 days; assay type: functional, organism-based; settings: dose 12.0 µmol/kg
MCF7 [21] = experiment: Cytotoxicity against human MCF7 cells assessed as cell killing at 1 times IC50 measured at 24 hrs by MTT assay; assay type: functional, cell-based
[22] = Toxicity in female Balb/c mouse implanted with mouse 4T1 cells assessed as pathological changes in liver at 12 micromol/kg, ip administered every other day for 2 weeks by H and E staining based analysis; assay type: organism-based; settings: in vivo, 336 h, dose 12 µmol/kg
Cell membrane [23] = experiment: Disruption of cell membrane in human MCF7 cells assessed as LDH release at 2.5 to 40 uM incubated for 1 hr by fluorescence based microplate reader analysis; assay type: cell membranes; settings: dose 2.5-40 µM
[24] = Toxicity in female Balb/c mouse implanted with mouse 4T1 cells assessed as animal death at 12 micromol/kg, ip administered every other day for 2 weeks; assay type: organism-based; settings: in vivo, 336 h, dose 12 µmol/kg
MCF7 [25] = experiment: Cytotoxicity against human MCF7 cells assessed as cell killing at 1 times IC50 measured within 12 hrs by MTT assay; assay type: functional, cell-based
[26] = Toxicity in female Balb/c mouse implanted with mouse 4T1 cells assessed as reduction in body weight at 12 micromol/kg, ip administered every other day for 2 weeks and measured every 2 days; assay type: organism-based; settings: in vivo, 336 h, dose 12 µmol/kg
[27] = Acute toxicity in female Balb/c mouse assessed as necrosis in kidney at approximately LD50 administered as single ip dose by H and E staining based analysis; assay type: organism-based; settings: in vivo
Cell membrane [28] = experiment: Disruption of cell membrane integrity in human MCF7 cells assessed as increase in PI fluorescence at 1 times IC50 measured after 0 to 120 mins by laser confocal scanning microscopic analysis; assay type: cell membranes; settings: time 0-120 min
MCF7 [29] = experiment: Induction of cell cycle arrest at G2/M phase in human MCF7 cells assessed as increase in cells at G2/M phase at 1 times IC50 measured after 24 hrs by PI/RNase staining based flow cytometry analysis; assay type: functional
[30] = Acute toxicity in female Balb/c mouse assessed as heart damage at approximately LD50 administered as single ip dose by H and E staining based analysis; assay type: organism-based; settings: in vivo
Cell membrane [31] = experiment: Disruption of cell membrane integrity in human MCF7 cells assessed as increase in PI fluorescence at 1 to 2 times IC50 measured after 1 hr by laser confocal scanning microscopic analysis; assay type: cell membranes
4T1 [32] = experiment: Antitumor activity against mouse 4T1 cells implanted in female Balb/c mouse assessed as increase in tumor cell necrosis at 12 micromol/kg, ip administered every other day for 2 weeks by H and E staining based analysis; assay type: functional, organism-based; settings: dose 12.0 µmol/kg
MCF7 [33] = experiment: Induction of apoptosis in human MCF7 cells assessed as late apoptotic cells at 1 times IC50 measured after 24 hrs by Annexin V-FITC staining based flow cytometry analysis (reference value: 1.60%); assay type: functional
MCF7 [34] = experiment: Induction of apoptosis in human MCF7 cells assessed as early apoptotic cells at 1 times IC50 measured after 24 hrs by Annexin V-FITC staining based flow cytometry analysis (reference value: 0.014%); assay type: functional
MCF7 [35] = experiment: Cytotoxicity against human MCF7 cells assessed as cell survival at 2 times IC50 incubated for 12 hrs by MTT assay relative to control; assay type: functional
Cell membrane [36] = experiment: Disruption of cell membrane integrity in human MCF7 cells assessed as increase in PI fluorescence at 2 times IC50 measured after 0 to 120 mins by laser confocal scanning microscopic analysis; assay type: cell membranes; settings: time 0-120 min
4T1 [37] = experiment: Antitumor activity against mouse 4T1 cells implanted in female Balb/c mouse assessed as increase in tumor cell apoptosis at 12 micromol/kg, ip administered every other day for 2 weeks by H and E staining based analysis; assay type: functional, organism-based; settings: dose 12.0 µmol/kg
MCF7 [38] = experiment: Cytotoxicity against human MCF7 cells assessed as cell survival at 2 times IC50 incubated for 24 hrs by MTT assay relative to control; assay type: functional

With CC(=O)O[C@H]1C(=O)[C@@]2(C)[C@H]([C@H](OC(=O)c3ccccc3)[C@]3(O)C[C@H](OC(=O)[C@H](O)[C@@H](NC(=O)c4ccccc4)c4ccccc4)C(C)=C1C3(C)C)[C@]1(OC(C)=O)CO[C@@H]1C[C@@H]2O [PACLITAXEL] the Activity [1] was “Toxic”, the Activity (MCF7 [2]) was “Active” and the Activity [3] was “Non-Toxic”. The Activity [4] was “Non-Toxic”, the Activity (MCF7 [5]) was 1.13% and the Activity (MCF7 [6]) was 30.2%. The Activity (Cell membrane [7]) was “inactive”, the Activity (MCF7 [8]) was “inactive” and the Activity [9] was “Non-Toxic”. For the same molecule, the LD50 at 168 h [10] was 39.7 mg/kg, the Activity (Cell membrane [11]) was “inactive” and the Activity [12] was “Non-Toxic”. For the same molecule, the Activity (MCF7 [13]) was “inactive”, the Activity (MCF7 [14]) was “Active” and the Activity (Cell membrane [15]) was “inactive”. The Activity (MCF7 [16]) was “Active”, the Activity [17] was “Non-Toxic” and the Activity (4T1 [18]) was 21.6%. For the same molecule, the Activity [19] was “Toxic”, the Activity (4T1 [20]) was “Active” and the Activity (MCF7 [21]) was “Active”. For the same molecule, the Activity [22] was “Non-Toxic”, the Activity (Cell membrane [23]) was “inactive” and the Activity [24] was “Non-Toxic”. For the same molecule, the Activity (MCF7 [25]) was “inactive”, the Activity [26] was “Non-Toxic” and the Activity [27] was “Toxic”. The Activity (Cell membrane [28]) was “inactive”, the Activity (MCF7 [29]) was “Active” and the Activity [30] was “Non-Toxic”. For the same molecule, the Activity (Cell membrane [31]) was “inactive”, the Activity (4T1 [32]) was “Active” and the Activity (MCF7 [33]) was 20.3%. For the same molecule, the Activity (MCF7 [34]) was 48.4%, the Survival (MCF7 [35]) was about 23.8% and the Activity (Cell membrane [36]) was “inactive”. The Activity (4T1 [37]) was “Active” and the Survival (MCF7 [38]) was about 9.7%.
